Laboratory results from PMC8113213, “Physiologically based kinetic modelling based prediction of in vivo rat and human acetylcholinesterase (AChE) inhibition upon exposure to diazinon” (Archives of Toxicology, 2021).
pIC50: −log10 of the molar value. Like-named read-outs stand apart in the source and are kept apart here.

Tests used:
rat RBC AChE = target: T1, rat RBC AChE (Rattus norvegicus, UniProt P37136); assay: In vitro AChE inhibition assay (Ellman) with extracted rat RBC AChE; type: biochemical; conditions: rat; IC50 DZO/IC50 DZN, TEF of DZO set at 1.0
T1 construct: the membrane fraction (containing AChE) was sedimented by centrifugation at 20,000g for 40 min; tissue BioIVT; host or cells: rat red blood cell membranes (from whole blood)
Protocol: (§1) However, since recombinant rat AChE was not commercially available, extracted rat RBC AChE was used. […] The concentration of DTNB was calculated based on the concentration ratio (ATC/DTNB) of 2 (Stern et al. [2014]). […] To initiate the inhibition reaction, 1 µl rhAChE or rat AChE (final concentration 0.6 mU/ml) was added to the incubation. The total incubation volume was 50 µl. After 15 min incubation at 37℃, 150 µl reaction reagents (mixture of ATC at a final concentration of 150 µM and DTNB at a final concentration of 75 µM) were added into each well. The final total volume of each well was 200 µl. Subsequently, the 96-well plate was measured continuously for 10 min at absorbance 412 nm at 37℃ to quantify the remaining AChE activity.
(§2) The rhAChE and rat AChE activity were expressed as the remaining AChE activity relative to solvent control (100% activity) and positive control (0% activity) based on Eq. (2):2 AChEactivity\%=A412t10-t0testcompound-A412t10-t0positivecontrol/A412t10-t0solventcontrol-A412t10-t0positivecontrol×100\% , where the A412(t10 − t0)test compound is the change in the absorbance at A412 nm between 0 and 10 min for the test compound, the A412(t10 − t0)positive control is the change in the absorbance at A412 nm between 0 and 10 min for the CPO sample, and the A412(t10 − t0)solvent control is the change in the absorbance at A412nm between 0 and 10 min for the 0.2% ethanol sample.

[1] = target: T2, recombinant human AChE (rhAChE) (Homo sapiens, UniProt P22303); assay: biochemical
T2 construct: purchased Sigma-Aldrich Co
Protocol: as §1, §2

[2] = Unbound fraction in the in vitro medium by rapid equilibrium dialysis (RED); type: in vitro ADME
Protocol: To assess whether this assumption is reasonable, the fuDZOin vitro was determined. This was done using rapid equilibrium dialysis (RED) performed in line with the manufacturer’s protocol (Thermo Fisher Scientific [2012]). […] The whole device was then incubated for 5 h at 37℃ on a shaker at 250 rmp to reach equilibrium. Then 50 µl of post-incubation sample were separately collected from the sample and buffer chambers into the corresponding Eppendorf tubes. After this 50 µl of PBS buffer was added to the sample taken from the sample chamber and 50 µl of in vitro medium was added to the sample taken from buffer chamber and subsequently 300 µl ice-cold 90% acetonitrile (ACN/water, v/v) were added to both samples to precipitate the protein. All samples were put on ice for 30 min, followed by centrifugation for 30 min at 15,000g. The supernatants were collected for LC–MS/MS analysis of the amount of DZO.

PON1 [3] = target: T3, PON1 (Homo sapiens, UniProt P27169); assay: in vitro; type: in vitro ADME; conditions: for Km: pH 7.4
T3 construct: 1 µl of human or rat liver microsomes (final concentration 0.1 mg microsomal protein/ml); tissue Corning; host or cells: human liver microsomes, pooled from 20 donors
Protocol: (§3) Preliminary studies were carried to optimize and select the incubation conditions with respect to linearity for both incubation time and microsomal/plasma protein concentration (data not shown). […] After 1 min preincubation in a 37 °C water bath, 1 µl of human or rat liver microsomes (final concentration 0.1 mg microsomal protein/ml), or 1 µl of human or rat plasma (final concentration 0.385 mg plasma protein/ml for human plasma and 0.300 mg plasma protein/ml for rat plasma) was added to initiate the reaction. The total incubation mixture was 200 µl. Control incubations were carried out by replacing liver microsomes or plasma with buffer. The reaction was terminated after 1 min incubation (human samples) or 2 min incubation (rat samples) by adding 200 µl ice-cold ACN. Subsequently, samples were centrifuged at 16000 g (4℃) for 5 min, and supernatants were further diluted (30 × for liver sample and 40 × for plasma sample) in a mixture of ACN and 50 mM Tris–HCl (pH 7.4) (ratio 1:1, v/v) before analysis by LC–MS/MS for quantification of metabolite formation.
(§4) The chromatographic separations were conducted on a Kinetex® 1.7 µm Phenyl-Hexyl 100 Å LC column (100 × 2.1 mm). The injection volume was 1 µl at a flow rate of 0.3 ml/min. The temperature of the column was kept at 40℃. The mobile phase A consisted of ultrapure water with 0.1% (v/v) formic acid, and mobile phase B consisted of acetonitrile (ACN) with 0.1% (v/v) formic acid. […] The instrument was used in positive mode with multiple reaction monitoring (MRM). The optimized acquisition parameters for DZN, DZO and the metabolite IMHP are listed in Supplementary data I.
(§5) The calculation was done using GraphPad Prism 5 for Windows, version 5.04 (GraphPad software, San Diego California USA).

PON1 [4] = target: T4, PON1 (Rattus norvegicus, UniProt P55159); assay: in vitro; type: in vitro ADME; parameters: 1 µl of human or rat liver microsomes (final concentration 0.1 mg microsomal protein/ml); tissue Corning; host or cells: rat liver microsomes (Sprague–Dawley, male); conditions: for Km: pH 7.4
Protocol: as §3, §4, §5

PON1 [5] = target: T4, PON1; conditions: ref Makhaeva et al. 2009; cited from earlier work
[6] = human; ref Garfitt et al. 2002; Poet et al. 2004; cited from earlier work
[7] = rat; ref Poet et al. 2004; cited from earlier work

T3 sequence (P27169 whole entry): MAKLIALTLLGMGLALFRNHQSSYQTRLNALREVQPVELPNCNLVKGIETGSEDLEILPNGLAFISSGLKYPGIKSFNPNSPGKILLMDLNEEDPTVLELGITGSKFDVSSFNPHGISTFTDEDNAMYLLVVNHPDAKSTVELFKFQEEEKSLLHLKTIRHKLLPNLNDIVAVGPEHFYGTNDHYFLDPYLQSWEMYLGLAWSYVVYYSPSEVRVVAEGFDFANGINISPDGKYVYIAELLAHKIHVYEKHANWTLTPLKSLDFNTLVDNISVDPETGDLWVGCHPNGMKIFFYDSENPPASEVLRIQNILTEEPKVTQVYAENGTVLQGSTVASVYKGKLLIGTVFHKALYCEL
T4 sequence (P55159 whole entry): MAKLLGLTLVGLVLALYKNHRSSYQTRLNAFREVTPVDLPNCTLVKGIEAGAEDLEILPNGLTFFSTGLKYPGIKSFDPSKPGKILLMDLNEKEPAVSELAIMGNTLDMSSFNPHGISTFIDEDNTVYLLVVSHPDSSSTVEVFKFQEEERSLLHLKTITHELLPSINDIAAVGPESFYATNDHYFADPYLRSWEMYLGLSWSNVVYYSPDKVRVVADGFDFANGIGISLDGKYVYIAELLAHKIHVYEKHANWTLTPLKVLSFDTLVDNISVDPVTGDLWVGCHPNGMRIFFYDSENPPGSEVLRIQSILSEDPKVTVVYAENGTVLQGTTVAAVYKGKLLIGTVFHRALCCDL
T2 sequence (P22303 32-614): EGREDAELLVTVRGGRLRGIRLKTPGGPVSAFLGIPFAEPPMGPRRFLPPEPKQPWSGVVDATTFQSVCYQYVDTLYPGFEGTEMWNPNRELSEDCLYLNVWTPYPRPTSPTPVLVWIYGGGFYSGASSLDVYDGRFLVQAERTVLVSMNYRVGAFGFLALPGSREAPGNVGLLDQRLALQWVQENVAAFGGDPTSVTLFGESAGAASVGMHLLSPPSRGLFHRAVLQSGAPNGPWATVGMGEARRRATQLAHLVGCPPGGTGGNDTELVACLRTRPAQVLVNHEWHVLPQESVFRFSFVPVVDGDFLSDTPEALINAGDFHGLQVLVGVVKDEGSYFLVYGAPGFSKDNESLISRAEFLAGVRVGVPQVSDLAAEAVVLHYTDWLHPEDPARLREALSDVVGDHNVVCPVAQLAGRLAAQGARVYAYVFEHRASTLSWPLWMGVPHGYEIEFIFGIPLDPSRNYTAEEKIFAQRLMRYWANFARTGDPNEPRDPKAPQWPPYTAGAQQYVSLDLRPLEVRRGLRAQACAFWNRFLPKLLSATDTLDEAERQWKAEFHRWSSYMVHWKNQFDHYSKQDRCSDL
T1 sequence (P37136 other isoform, or with tags, fused parts or gaps): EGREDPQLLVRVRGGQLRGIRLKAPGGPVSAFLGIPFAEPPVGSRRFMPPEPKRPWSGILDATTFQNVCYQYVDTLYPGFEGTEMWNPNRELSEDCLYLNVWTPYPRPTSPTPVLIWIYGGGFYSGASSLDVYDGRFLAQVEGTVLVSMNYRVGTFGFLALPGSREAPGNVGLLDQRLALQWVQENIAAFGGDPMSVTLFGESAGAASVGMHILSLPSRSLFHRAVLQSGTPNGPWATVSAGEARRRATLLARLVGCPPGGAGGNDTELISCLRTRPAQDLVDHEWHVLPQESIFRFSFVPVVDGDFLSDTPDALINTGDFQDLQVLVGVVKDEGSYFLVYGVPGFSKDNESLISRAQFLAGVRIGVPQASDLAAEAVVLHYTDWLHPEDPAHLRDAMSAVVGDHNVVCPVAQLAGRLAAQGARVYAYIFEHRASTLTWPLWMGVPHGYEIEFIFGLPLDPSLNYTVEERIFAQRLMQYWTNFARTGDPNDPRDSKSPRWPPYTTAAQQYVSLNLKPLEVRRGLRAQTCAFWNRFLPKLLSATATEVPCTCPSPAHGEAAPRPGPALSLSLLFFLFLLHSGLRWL

In the case of `CCOP(=O)(OCC)Oc1cc(C)nc(C(C)C)n1` [DZO, Diazoxon], the “toxic equivalency factor (TEF)” value (rat RBC AChE) was 1.0, the “toxic equivalency factor (TEF)” value ([1]; human, IC50 DZO/IC50 DZN, TEF of DZO set at 1.0) was 1.0 and the pIC50 ([1]; rhAChE, 15 min incubation at 37℃, read-out: IC50 for inhibition of AChE activity) was 7.36. The recovery at 5 h, 0.05 µM ([2]; in vitro medium in a RED insert device, read-out: recovery rate of post-dialysis in the in vitro medium) was 74%, the fraction unbound at 5 h, 0.05 µM ([2]; in vitro medium with 0.1 mg/ml BSA, read-out: unbound fraction in the in vitro medium (fu in vitro)) was 0.96 and the “Vmax DZO to IMHP, plasma” value (PON1 [3]) was 124.000 nmol/min/mg plasma protein. The “Vmax DZO to IMHP, liver” value (PON1 [3]; human liver microsomes) was 53.490 nmol/min/mg microsomal protein, the Km (PON1 [3]; human liver microsomes) was 557 µM and the Km (PON1 [3]; human plasma) was 701 µM. The Km (PON1 [4]; rat liver microsomes) was 668 µM, the Km (PON1 [4]; rat plasma) was 536 µM and the “Vmax DZO to IMHP, liver” value (PON1 [4]; rat liver microsomes) was 691.100 nmol/min/mg microsomal protein. For the same molecule, the “Vmax DZO to IMHP, plasma” value (PON1 [4]; rat plasma) was 431.400 nmol/min/mg plasma protein, the “PON1-mediated conversion of DZO faster in rat liver than in human liver” value (PON1 [4]; rat versus human liver) was 10.7 fold and the “higher Vmax of PON1-mediated conversion in rat liver” value (PON1 [4]; rat versus human liver) was 12.9 fold. The “PON1-mediated conversion of DZO faster in rat plasma than in human plasma” value (PON1 [4]; rat versus human plasma) was 4.5 fold and the “higher Vmax of PON1-mediated conversion in rat plasma” value (PON1 [4]; rat versus human plasma) was 3.5 fold.
In the case of `CCOP(=O)(OCC)Oc1ccc([N+](=O)[O-])cc1` [paraoxon], the “faster PON1-mediated hydrolysis by rat than human plasma samples” value (PON1 [5]) is given as “approximately 4 fold”.
For `Cc1cc(=O)nc(C(C)C)[nH]1` [IMHP, 2-isopropyl-4-methyl-6-hydroxypyrimidine], the “Ke, elimination into the urine” value [6] is listed as 12 h⁻¹ and the “Ke, elimination into the urine” value [7] is listed as 0.29 h⁻¹.
For `CCOP(O)(=S)OCC` [DETP, diethylthiophosphate], the “Ke, elimination into the urine” value [6] is given as 12 h⁻¹ and the “Ke, elimination into the urine” value [7] is given as 0.29 h⁻¹.
In the case of `CCOP(=O)(O)OCC` [DEP, diethylphosphate], the “Ke, elimination into the urine” value [6] is given as 12 h⁻¹ and the “Ke, elimination into the urine” value [7] is given as 0.29 h⁻¹.
